From ChEMBL document CHEMBL5233223, “Dammarane-type leads panaxadiol and protopanaxadiol for drug discovery: Biological activity and structural modification” (Eur J Med Chem, 2020)
pIC50: −log10 of the molar value.

What was measured:
[1] = test system: HCT-116; experiment: Antiproliferative activity against human HCT-116 cells assessed as cell growth inhibition; format: functional, cell-based
[2] = test system: SW480; experiment: Antiproliferative activity against human SW480 cells assessed as cell growth inhibition; format: functional, cell-based
[3] = test system: MCF7; experiment: Antiproliferative activity against human MCF7 cells assessed as cell growth inhibition; format: functional, cell-based
[4] = test system: HCT-116; experiment: Antiproliferative activity against human HCT-116 cells assessed as cell growth inhibition at 200 uM relative to control; format: functional; parameters: scale not given: the % may be the effect or the level left
[5] = test system: HCT-116; experiment: Induction of apoptosis in human HCT-116 cells at 250 uM relative to control; format: functional
[6] = test system: LNCaP; experiment: Antiproliferative activity against human LNCAP cells assessed as cell growth inhibition; format: functional, cell-based
[7] = test system: LNCaP C4-2; experiment: Antiproliferative activity against human LNCaP C4-2 cells assessed as cell growth inhibition in presence of calcitriol; format: functional, cell-based
[8] = test system: HT-1080; experiment: Antiproliferative activity against human HT-1080 cells assessed as inhibition of cell proliferation; format: functional, cell-based
[9] = test system: LNCaP; experiment: Antiproliferative activity against human LNCAP cells assessed as cell growth inhibition in presence of calcitriol; format: functional, cell-based
[10] = test system: SW480; experiment: Antiproliferative activity against human SW480 cells assessed as cell growth inhibition by crystal violet staining based assay; format: functional
[11] = test system: LNCaP C4-2; experiment: Antiproliferative activity against human LNCaP C4-2 cells assessed as cell growth inhibition; format: functional, cell-based
[12] = test system: Ishikawa; experiment: Induction of autophagy in human Ishikawa cells assessed as ratio of LC3bII/LC3bI levels; format: functional
[13] = Antiproliferative activity against human Ectopic endometrial stromal cell assessed as cell growth inhibition; format: functional, cell-based
[14] = test system: SF-188; experiment: Antiproliferative activity against human SF-188 cells assessed as inhibition of cell proliferation; format: functional, cell-based
[15] = test system: REH; experiment: Antiproliferative activity against human REH cells assessed as cell growth inhibition; format: functional, cell-based
[16] = target: Stromelysin-1 (Homo sapiens) (UniProt P08254); experiment: Inhibition of MMP-3 (unknown origin) at 10 uM
Chain of Stromelysin-1 (Homo sapiens) (P08254 100-477 limits assumed): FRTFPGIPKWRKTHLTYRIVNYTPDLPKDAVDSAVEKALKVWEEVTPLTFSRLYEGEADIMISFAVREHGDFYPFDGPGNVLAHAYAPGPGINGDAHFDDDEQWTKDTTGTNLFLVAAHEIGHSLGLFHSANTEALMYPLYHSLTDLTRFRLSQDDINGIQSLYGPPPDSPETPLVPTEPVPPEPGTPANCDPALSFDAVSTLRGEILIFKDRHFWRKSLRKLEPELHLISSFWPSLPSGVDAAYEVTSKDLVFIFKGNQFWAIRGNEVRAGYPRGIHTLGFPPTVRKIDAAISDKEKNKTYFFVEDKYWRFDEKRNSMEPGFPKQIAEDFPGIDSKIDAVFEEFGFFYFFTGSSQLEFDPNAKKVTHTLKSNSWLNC

[17] = target: Stromelysin-1 (Homo sapiens) (UniProt P08254); experiment: Inhibition of MMP-3 (unknown origin) at 5 uM
[18] = test system: RS4-11; experiment: Antiproliferative activity against human RS4-11 cells assessed as cell growth inhibition; format: functional, cell-based
[19] = test system: HCT-116; experiment: Antiproliferative activity against human HCT-116 cells assessed as cell growth inhibition by crystal violet staining based assay; format: functional
[20] = test system: HCT-116; experiment: Antiproliferative activity against human HCT-116 cells assessed as cell growth inhibition by crystal violet staining based assay relative to control; format: functional; parameters: scale not given: the % may be the effect or the level left
[21] = test system: RL95-2; experiment: Induction of autophagy in human RL95-2 cells assessed as ratio of LC3bII/LC3bI levels; format: functional
[22] = Cytotoxicity against human PBMC assessed as cell growth inhibition; format: toxicity, cell-based; details: PBMC (peripheral blood mononuclear cells)
[23] = Antiproliferative activity against human U-87 MG cells assessed as inhibition of cell proliferation; format: functional, cell-based, U-87MG ATCC
[24] = target: Estrogen receptor (Homo sapiens, UniProt P03372); experiment: Displacement of [3H]-17beta-estradiol to estrogen receptor (unknown origin)
Chain of Estrogen receptor (P03372 whole entry): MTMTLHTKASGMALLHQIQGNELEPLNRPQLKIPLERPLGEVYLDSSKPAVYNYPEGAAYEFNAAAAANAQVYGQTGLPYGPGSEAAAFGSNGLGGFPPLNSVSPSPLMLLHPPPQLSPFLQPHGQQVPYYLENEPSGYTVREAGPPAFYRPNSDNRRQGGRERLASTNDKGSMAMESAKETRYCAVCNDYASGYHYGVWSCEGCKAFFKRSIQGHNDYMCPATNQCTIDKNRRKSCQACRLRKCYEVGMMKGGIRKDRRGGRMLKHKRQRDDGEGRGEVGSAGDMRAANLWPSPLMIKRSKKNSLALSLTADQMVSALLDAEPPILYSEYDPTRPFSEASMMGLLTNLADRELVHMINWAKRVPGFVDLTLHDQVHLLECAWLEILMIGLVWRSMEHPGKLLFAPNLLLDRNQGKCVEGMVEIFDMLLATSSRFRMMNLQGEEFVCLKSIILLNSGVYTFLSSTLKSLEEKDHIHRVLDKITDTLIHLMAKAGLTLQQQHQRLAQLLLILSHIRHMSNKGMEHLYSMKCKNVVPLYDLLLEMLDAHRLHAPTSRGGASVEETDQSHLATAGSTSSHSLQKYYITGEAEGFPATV

[25] = test system: HeLa; experiment: Antiproliferative activity against human HeLa cells assessed as cell growth inhibition; format: functional, cell-based
[26] = test system: HCT-116; experiment: Antiproliferative activity against human HCT-116 cells at 20 uM incubated for 48 hrs by MTS assay relative to control; format: functional
[27] = test system: HCT-116; experiment: Antiproliferative activity against human HCT-116 cells at 30 uM incubated for 48 hrs by MTS assay relative to control; format: functional
[28] = test system: HCT-116; experiment: Antiproliferative activity against human HCT-116 cells at 30 uM incubated for 48 hrs in presence of PPD by MTS assay relative to control; format: functional
[29] = test system: HCT-116; experiment: Antiproliferative activity against human HCT-116 cells at 10 uM incubated for 48 hrs in presence of PPD by MTS assay relative to control; format: functional
[30] = test system: HCT-116; experiment: Induction of apoptosis in human HCT-116 cells at 30 uM by annexin V-FITC/propidium iodide staining based flow cytometry analysis relative to control; format: functional
[31] = test system: HCT-116; experiment: Antiproliferative activity against human HCT-116 cells at 20 uM incubated for 48 hrs in presence of PPD by MTS assay relative to control; format: functional
[32] = test system: HCT-116; experiment: Induction of apoptosis in human HCT-116 cells at 30 uM in presence of PPD by annexin V-FITC/propidium iodide staining based flow cytometry analysis relative to control; format: functional
[33] = test system: HCT-116; experiment: Antiproliferative activity against human HCT-116 cells at 10 uM incubated for 48 hrs by MTS assay relative to control; format: functional
[34] = test system: SW480; experiment: Antiproliferative activity against human SW480 cells assessed as cell growth inhibition in presence of irinotecan; format: functional, cell-based
[35] = test system: HCT-116; experiment: Antiproliferative activity against human HCT-116 cells assessed as cell growth inhibition in presence of irinotecan; format: functional, cell-based
[36] = test system: HCT-116; experiment: Induction of apoptosis in human HCT-116 cells at 20 uM in presence of EGCG at 20 uM relative to control; format: functional
[37] = test system: HCT-116; experiment: Induction of apoptosis in human HCT-116 cells at 10 uM in presence of EGCG at 20 uM relative to control; format: functional
[38] = test system: HCT-116; experiment: Induction of apoptosis in human HCT-116 cells at 20 uM in presence of EGCG at 30 uM relative to control; format: functional
[39] = test system: HCT-116; experiment: Induction of apoptosis in human HCT-116 cells at 10 uM relative to control; format: functional
[40] = test system: HCT-116; experiment: Induction of apoptosis in human HCT-116 cells at 10 uM in presence of EGCG at 30 uM relative to control; format: functional
[41] = test system: HCT-116; experiment: Induction of apoptosis in human HCT-116 cells at 20 uM in presence of EGCG at 10 uM relative to control; format: functional
[42] = test system: HCT-116; experiment: Induction of apoptosis in human HCT-116 cells at 10 uM in presence of EGCG at 10 uM relative to control; format: functional
[43] = test system: HCT-116; experiment: Induction of apoptosis in human HCT-116 cells at 20 uM relative to control; format: functional
[44] = test system: HCT-116; experiment: Antiproliferative activity against human HCT-116 cells assessed as cell growth inhibition at 20 uM in presence of epicatechin at 150 uM relative to control; format: functional; parameters: scale not given: the % may be the effect or the level left
[45] = test system: HCT-116; experiment: Antiproliferative activity against human HCT-116 cells assessed as cell growth inhibition at 20 uM in presence of epicatechin at 250 uM relative to control; format: functional; parameters: scale not given: the % may be the effect or the level left
[46] = test system: HeLa; experiment: Antiproliferative activity against human HeLa cells assessed as cell growth inhibition measured after 24 hrs by [3H]thymidine incorporation assay; format: functional, cell-based
[47] = test system: HCT-116; experiment: Antiproliferative activity against human HCT-116 cells assessed as cell growth inhibition at 20 uM relative to control; format: functional; parameters: scale not given: the % may be the effect or the level left
[48] = test system: HCT-116; experiment: Induction of apoptosis in human HCT-116 cells at 20 uM in presence of epicatechin at 200 uM relative to control; format: functional
[49] = test system: HCT-116; experiment: Induction of apoptosis in human HCT-116 cells at 20 uM in presence of epicatechin at 150 uM relative to control; format: functional
[50] = test system: HCT-116; experiment: Antiproliferative activity against human HCT-116 cells assessed as cell growth inhibition at 20 uM in presence of epicatechin at 200 uM relative to control; format: functional; parameters: scale not given: the % may be the effect or the level left
[51] = test system: SK-HEP1; experiment: Antiproliferative activity against human SK-HEP1 cells assessed as cell growth inhibition measured after 24 hrs by [3H]thymidine incorporation assay; format: functional, cell-based
[52] = test system: HCT-116; experiment: Induction of apoptosis in human HCT-116 cells at 20 uM at 20 uM relative to control; format: functional
[53] = test system: Mus musculus; experiment: In vivo radioprotective activity in gamma-irradiated ICR mouse assessed as inhibition of radiation-induced apoptosis frequency relative to control; format: functional; parameters: scale not given: the % may be the effect or the level left
[54] = test system: HCT-116; experiment: Induction of apoptosis in human HCT-116 cells at 20 uM in presence of epicatechin at 250 uM relative to control; format: functional
[55] = test system: PC-3; experiment: Antiproliferative activity against human PC-3 cells assessed as cell growth inhibition; format: functional, cell-based
[56] = test system: HepG2 2.2.15; experiment: Antiproliferative activity against human HepG2.2.15 cells assessed as cell growth inhibition; format: functional, cell-based
[57] = target: 11-beta-hydroxysteroid dehydrogenase 1 (Homo sapiens, UniProt P28845); experiment: Inhibition of human 11beta-HSD1
Chain of 11-beta-hydroxysteroid dehydrogenase 1 (Homo sapiens, UniProt P28845) (P28845 whole entry): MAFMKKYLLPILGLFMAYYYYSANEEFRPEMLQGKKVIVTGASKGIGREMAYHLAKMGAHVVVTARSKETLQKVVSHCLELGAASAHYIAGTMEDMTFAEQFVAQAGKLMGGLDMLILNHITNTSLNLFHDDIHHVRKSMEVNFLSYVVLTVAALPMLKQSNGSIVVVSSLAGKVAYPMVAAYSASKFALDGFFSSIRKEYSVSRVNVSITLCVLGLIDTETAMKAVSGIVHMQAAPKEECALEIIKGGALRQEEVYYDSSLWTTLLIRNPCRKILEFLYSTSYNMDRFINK

[58] = target: 11-beta-hydroxysteroid dehydrogenase 1 (Mus musculus, UniProt P50172); experiment: Inhibition of mouse 11beta-HSD1
Chain of 11-beta-hydroxysteroid dehydrogenase 1 (Mus musculus, UniProt P50172) (P50172 whole entry): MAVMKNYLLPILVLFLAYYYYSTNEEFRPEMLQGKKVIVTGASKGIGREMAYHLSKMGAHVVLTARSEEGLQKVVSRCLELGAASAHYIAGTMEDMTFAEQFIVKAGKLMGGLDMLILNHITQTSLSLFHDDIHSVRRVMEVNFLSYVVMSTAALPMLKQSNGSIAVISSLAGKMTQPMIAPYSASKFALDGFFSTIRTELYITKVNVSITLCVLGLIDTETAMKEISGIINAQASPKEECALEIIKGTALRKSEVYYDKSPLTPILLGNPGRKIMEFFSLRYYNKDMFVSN

CC(=O)O[C@H]1CC[C@@]2(C)C(CC[C@]3(C)C2C[C@@H](O)C2C([C@@](C)(O)CCC=C(C)C)CC[C@]23C)C1(C)C (some centres undefined)
pIC50 [1]: 4.36
pIC50 [2]: 4.52
pIC50 [3]: 4.43

Oc1cc(O)c2c(c1)O[C@H](c1ccc(O)c(O)c1)[C@H](O)C2 [(-)-EPICATECHIN]
Activity [4]: 17%
Activity [5]: 9.4%

CC(C)=CCC[C@](C)(O)C1CC[C@]2(C)C1[C@H](O)CC1[C@@]3(C)CC[C@H](O)C(C)(C)C3CC[C@]12C (some centres undefined)
pIC50 [6]: 4.39
pIC50 [7]: 4.64
pIC50 [8]: 4.11
pIC50 [9]: 4.28
pIC50 [10]: 5.05
pIC50 [11]: 4.89
Ratio [12]: 0.91
pIC50 [13]: 4.51
pIC50 [14]: 4.62
pIC50 [15]: 4.61
inhibition [16]: 68.6%
inhibition [17]: 40.3%
pIC50 [18]: 4.57
pIC50 [19]: 5.33
Activity [20]: <30%
Ratio [21]: 1.93
pIC50 [22]: 3.94
pIC50 [23]: 4.42
pIC50 [24]: 4.58

CC(C)(O)[C@H]1CC[C@@](C)([C@H]2CC[C@]3(C)C2[C@H](O)CC2[C@@]4(C)CC[C@H](O)C(C)(C)C4CC[C@]23C)O1 (some centres undefined)
pIC50 [25]: 5.34

O=c1[nH]cc(F)c(=O)[nH]1 [FLUOROURACIL]
Activity [26]: 20.2%
Activity [27]: 30.1%
Activity [28]: 49.4%
Activity [29]: 13.8%
Activity [30]: 5%
Activity [31]: 27.4%
Activity [32]: 28.8%
Activity [33]: 5.7%

CC(C)(O)[C@@H]1CC[C@@](C)([C@H]2CC[C@]3(C)C2[C@H](O)CC2[C@@]4(C)CC[C@H](O)C(C)(C)C4CC[C@]23C)O1 (some centres undefined)
pIC50 [25]: 4.75

CC1(C)CCC[C@@](C)(C2CC[C@]3(C)C2[C@H](O)CC2[C@@]4(C)CC[C@H](O)C(C)(C)C4CC[C@]23C)O1 (some centres undefined)
pIC50 [34]: 5.36
pIC50 [1]: 4.92
pIC50 [35]: 4.93
Activity [36]: 40.7%
Activity [37]: 30.2%
Activity [38]: 48%
pIC50 [2]: 5.30
Activity [39]: 5.7%
Activity [40]: 35.2%
Activity [41]: 27.8%
Activity [42]: 14.1%
Activity [43]: 19%

CC(=O)Oc1ccccc1C(=O)O[C@H]1CC[C@@]2(C)C(CC[C@]3(C)C2C[C@@H](O)C2C([C@@]4(C)CCCC(C)(C)O4)CC[C@]23C)C1(C)C (some centres undefined)
pIC50 [3]: 5.59

CC1(C)CCC[C@](C)(C2CC[C@]3(C)C2[C@H](O)CC2[C@@]4(C)CC[C@H](O)C(C)(C)C4CC[C@]23C)O1 (some centres undefined)
Activity [44]: 50.7%
Activity [45]: 94.7%
pIC50 [46]: 5.92
Activity [47]: 28.7%
Activity [48]: 16.6%
Activity [49]: 11.9%
Activity [50]: 97.2%
pIC50 [51]: 6.10
Activity [52]: 7.2%
Activity [53]: 29.5%
Activity [54]: 25.8%

COc1ccc(/C=C2/C[C@@]3(C)C(CC[C@]4(C)C3C[C@@H](O)C3C([C@@]5(C)CCCC(C)(C)O5)CC[C@]34C)C(C)(C)C2=O)cc1 (some centres undefined)
pIC50 [55]: 4.40

CC1(C)CCC[C@](C)(C2CC[C@]3(C)C2[C@H](O)CC2[C@@]4(C)CC[C@H](OC(=O)CCC(=O)O)C(C)(C)C4CC[C@]23C)O1 (some centres undefined)
pIC50 [56]: 5.14

CO[C@H]1CC(=O)[C@]2(C)C1[C@H](OC(C)=O)CC1[C@@]3(C)CC[C@H](O)C(C)(C)C3CC[C@]12C (some centres undefined)
pIC50 [57]: 7.36
pIC50 [58]: 6.39

CO[C@@H]1CC(=O)[C@]2(C)C1[C@H](OC(C)=O)CC1[C@@]3(C)CC[C@H](O)C(C)(C)C3CC[C@]12C (some centres undefined)
pIC50 [57]: 7.82
pIC50 [58]: 5.48
